Data reported in paper PMC6274786 (International Journal of Molecular Sciences, 2018).
Where two headings read alike, the source gives them in different places.

How the values were obtained:
MES-induced seizure = experiment: Maximal electroshock (MES)-induced seizure; assay type: in vivo, Wistar rats; settings: 10 mg/kg i.p.; for MES-Induced Seizure (protection class): 50 Hz, 120 mA, 1 s
From the text: As previously described, the seizures were induced in rats with a 50 Hz alternating current of 120 mA intensity. The current was applied through ear electrodes for 1 s. Protection against the spread of MES-induced seizure was defined as the abolition of the tonic hind limb extension (THLE) component of the seizure. For the first screening of protective effects of test compounds 1–16 in the MES-induced seizure model, the animals were divided into eighteen groups of seven rats (n = 7) as follows; group (1) control group injected with vehicle (SAL), group (2) positive control group in which rats were injected with PHT at a dose of 10 mg/kg (this being the minimal dose of PHT that protected animals against the spread of MES-induced seizures without mortality), and groups (3)–(18) animals in the experimental groups were administered H3R antagonists 1–16 at a dose of 10 mg/kg. In another MES experiment in three separate groups of six rats (n = 6), H3R antagonist 4 with the most promising protection in MES model was administered at doses of 2.5, 5, or 15 mg/kg, i.p. 30–45 min before the MES challenge.

PTZ-induced seizure = experiment: Pentylenetetrazole (PTZ)-induced seizure; assay type: in vivo, Wistar rats; settings: for PTZ-Induced Seizure (protection class): PTZ 60 mg/kg; for protective effect in PTZ-induced seizure (in words): observed over 30 min, vs saline-treated group
Protocol: (§1) In this study and according to previously used protocols, two chemical agents have been used to induce seizures, namely pentylenetetrazole (PTZ, 60 mg/kg, i.p.) and strychnine (STR, 3.5 mg/kg, i.p.). PTZ 60 mg/kg or STR 3.5 mg/kg were administered i.p. to all groups of seven rats (n = 7), that is, animals pretreated with vehicle or test compounds 1–16. Vehicle, VPA (300 mg/kg, i.p.), [26, 47, 48, 49] or test compounds 1–16 (10 mg/kg, i.p.) were systemically administered 30–45 min before PTZ (60 mg/kg, i.p.) or STR (3.5 mg/kg, i.p.) injection, and animals were directly observed for any signs of convulsion for a duration of 30 min. The observed scores as well as percent protection against generalized tonic-clonic seizure (GTCS) were graded and scaled according to the Racine scale (stage 0, no change in behavior; stage 1, stereotype mouthing, eye blinking, and/or mild facial clonus; stage 2, head nodding and/or severe facial clonus; stage 3, myoclonic jerk in forelimbs; stage 4, clonic convulsions in the forelimbs with rearing; stage 5, generalized colonic convulsions associated with loss of balance) to evaluate the protection provided by the respective test compound against seizures. The animals were divided into eighteen groups of seven rats (n = 7) and treated as follows.
(§2) (1) Control group injected with vehicle + PTZ (SAL group), (2) positive control group in which rats were injected with VPA (300 mg/kg) + PTZ (VPA group), and animals in the test groups (3)–(18) were systemically administered with test compounds 1–16 (10 mg/kg), respectively. An additional PTZ experiment was conducted using three different groups of seven rats (n = 7), the H3R ligand with the most promising protection in PTZ model was administered at doses of 2.5, 5, or 15 mg/kg, i.p. 30–45 min before the PTZ challenge. […] The same experimental procedure was followed in the STR-induced seizure model applying the reference drug VPA, which was used at a dose of 300 mg/kg, i.p. (Figure 3, Table 2).

STR-induced seizure = experiment: Strychnine (STR)-induced seizure; assay type: in vivo, Wistar rats; settings: for STR-Induced Seizure (protection class): STR 3.5 mg/kg; for protective effect in STR-induced seizure (in words): 30 min observation, vs saline-treated group
Protocol: as §1, §2

human histamine H3R = biological target: T1, human histamine H3R (Homo sapiens, UniProt Q9Y5N1); experiment: [3H]Nα-methylhistamine radioligand displacement assay, HEK-293 cell membranes; assay type: binding
T1 construct: expressed in transfected cells
Protocol: As described previously, the affinity for the human histamine H3R was tested utilizing radioligand displacement assays with [^3H]N^α-methylhistamine at membrane preparations from human embryonic kidney (HEK)-293 cells, stably expressing the receptor. […] The analysis of data was conducted by the software GraphPad Prism 7 (San Diego, CA, USA), using the “one-site competition” equation. Ki values were calculated from the 50 percent of inhibitory concentration (IC50) values according to the Cheng-Prusoff equation [44]

human H1 receptor = biological target: T2, human H1 receptor (Homo sapiens, UniProt P35367); experiment: Radioligand binding, membranes from CHO-K1 cells
T2 construct: purchased PerkinElmer; host or cells: CHO-K1 cells, stably transfected (membranes)
Protocol: Radioligand binding was performed as previously described using membranes from CHO-K1 cells stably transfected with the human H1 receptor (PerkinElmer., Waltham, MA, USA). Data were fitted to a one-site curve-fitting equation with Prism 6 (GraphPad Software, city, state, country) and Ki values were estimated from the Cheng–Prusoff equation [44].

hH4R = biological target: T3, hH4R (Homo sapiens, UniProt Q9H3N8); experiment: H4R radioligand displacement assay, Sf9 cell membrane preparations; assay type: binding
T3 construct: expressed in transfected cells; host or cells: Sf9 insect cells (membrane preparations)
Protocol: H4R radioligand displacement assays were performed with Sf9 cell membrane preparations, expressing the hH4R, as described previously. Assays ran in triplicates with four appropriate concentrations of the test compound. Data were analyzed by GraphPad Prism 7, using the “one-site competition” equation.

[1] = mean with 95% confidence interval, read-out: In Vitro Affinity Ki (hH3R) in nM [CI]

T2 sequence (P35367 whole entry): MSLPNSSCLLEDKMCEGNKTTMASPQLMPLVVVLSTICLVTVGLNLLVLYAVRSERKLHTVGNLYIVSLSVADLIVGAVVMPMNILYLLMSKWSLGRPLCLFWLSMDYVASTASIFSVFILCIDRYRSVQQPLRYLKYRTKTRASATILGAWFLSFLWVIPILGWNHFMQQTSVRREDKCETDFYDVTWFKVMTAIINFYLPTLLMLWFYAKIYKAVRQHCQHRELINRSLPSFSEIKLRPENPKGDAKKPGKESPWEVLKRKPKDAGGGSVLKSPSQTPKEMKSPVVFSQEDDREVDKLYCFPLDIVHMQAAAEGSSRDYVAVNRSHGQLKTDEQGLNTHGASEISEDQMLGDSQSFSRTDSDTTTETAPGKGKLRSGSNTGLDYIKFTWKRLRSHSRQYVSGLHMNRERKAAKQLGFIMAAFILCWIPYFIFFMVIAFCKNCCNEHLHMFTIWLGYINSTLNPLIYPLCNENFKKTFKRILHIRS
T1 sequence (Q9Y5N1 whole entry): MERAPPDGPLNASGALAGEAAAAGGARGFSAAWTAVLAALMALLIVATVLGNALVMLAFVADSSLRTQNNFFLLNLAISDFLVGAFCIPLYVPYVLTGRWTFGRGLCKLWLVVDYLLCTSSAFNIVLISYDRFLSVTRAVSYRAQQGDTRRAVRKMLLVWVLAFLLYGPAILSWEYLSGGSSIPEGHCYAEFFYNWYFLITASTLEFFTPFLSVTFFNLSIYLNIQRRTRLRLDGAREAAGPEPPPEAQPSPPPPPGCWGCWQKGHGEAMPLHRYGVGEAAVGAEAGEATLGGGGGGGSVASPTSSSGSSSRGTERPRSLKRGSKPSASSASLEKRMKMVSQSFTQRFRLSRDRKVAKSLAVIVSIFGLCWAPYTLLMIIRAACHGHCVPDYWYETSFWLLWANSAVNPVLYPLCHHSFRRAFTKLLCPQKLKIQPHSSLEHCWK
T3 sequence (Q9H3N8 whole entry): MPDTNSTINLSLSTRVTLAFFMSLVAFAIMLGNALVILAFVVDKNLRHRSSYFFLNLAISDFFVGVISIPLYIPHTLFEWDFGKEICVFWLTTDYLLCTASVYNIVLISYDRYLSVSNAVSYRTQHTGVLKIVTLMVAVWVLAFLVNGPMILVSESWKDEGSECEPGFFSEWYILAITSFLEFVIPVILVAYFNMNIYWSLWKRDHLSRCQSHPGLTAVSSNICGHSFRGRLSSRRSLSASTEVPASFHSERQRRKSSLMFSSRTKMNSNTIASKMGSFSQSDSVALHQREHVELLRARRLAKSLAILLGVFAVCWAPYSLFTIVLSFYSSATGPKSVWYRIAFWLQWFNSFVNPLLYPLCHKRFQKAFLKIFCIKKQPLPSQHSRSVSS

| Compound | MES-Induced Seizure (protection class) (MES-induced seizure) | PTZ-Induced Seizure (protection class) (PTZ-induced seizure; 10 mg/kg i.p.) | STR-Induced Seizure (protection class) (STR-induced seizure; 10 mg/kg i.p.) | Ki (human histamine H3R) [nM] | further results |
| --- | --- | --- | --- | --- | --- |
| CC1CCCN(CCCCCCOc2ccc3ccccc3c2)C1.O=C(O)C(=O)O (stereo not shown) [Ligand 3, 3-methyl-1-(6-(naphthalen-2-yloxy)hexyl)piperidine hydrogen oxalate] | ++ (high protective effect (THLE duration <1, seizure score 0)) | − | − |  |  |
| O=C(O)C(=O)O.O=C(c1ccccc1)c1cccc(OCCCCCCN2CCCCCC2)c1 [Ligand 10, (3-(6-(azepan-1-yl)hexyloxy)phenyl)(phenyl)methanone hydrogen oxalate] | − | − | − | 69.5 |  |
| O=C1NC(=O)C(c2ccccc2)(c2ccccc2)N1 [PHT, phenytoin, reference compound] |  |  |  |  | MES-Induced Seizure Average THLE (MES-induced seizure): 0.90 ± 0.19 s |
| O=C(O)C(=O)O.O=C(c1ccccc1)c1ccc(OCCCCCN2CCCCCC2)cc1 [Ligand 16, (4-(5-(azepan-1-yl)pentyloxy)phenyl)(phenyl)methanone hydrogen oxalate] | − | − | − | 38.5 |  |
| O=C(O)C(=O)O.c1ccc2cc(OCCCCCN3CCCCCC3)ccc2c1 [Ligand 2, 1-(5-(naphthalen-2-yloxy)pentyl)azepane hydrogen oxalate] | − | − | − |  |  |
| O=C(O)C(=O)O.O=C(c1ccccc1)c1ccc(OCCCCCCN2CCCCCC2)cc1 [Ligand 7, (4-(6-(azepan-1-yl)hexyloxy)phenyl)(phenyl)methanone hydrogen oxalate] | + (moderate protective effect (tonic hind limb extension (THLE) duration in the range of 2–5 s, seizure score in the range of 2–4)) | ++ (high protective effect (THLE duration <1, seizure score 0)) | − | 40.5 | Ki (human H1 receptor): 915 nM; fold lower affinity at hH1- and H4Rs than at H3R (human H1 receptor; selectivity toward H3Rs): at least 10 fold; Ki (hH4R): > 10000 nM; protective effect in PTZ-induced seizure (in words) (PTZ-induced seizure; 10 mg/kg i.p.): full protective activities; protective effect in STR-induced seizure (in words) (STR-induced seizure; 10 mg/kg i.p.): failed to exhibit appreciable protection |
| Fc1ccc(OCCCCCCN2CCCCC2)cc1.O=C(O)C(=O)O [Ligand 11, 1-(6-(4-fluorophenoxy)hexyl)piperidine hydrogen oxalate] | − | ++ (high protective effect (THLE duration <1, seizure score 0)) | − |  | Ki (human histamine H3R; [1]): 115 nM; protective effect in PTZ-induced seizure (in words) (PTZ-induced seizure; 10 mg/kg i.p.): full protective activities; protective effect in STR-induced seizure (in words) (STR-induced seizure; 10 mg/kg i.p.): failed to exhibit appreciable protection |
| C[C@@H](N)Cc1c[nH]cn1 [RAMH, (R)-α-methylhistamine, reference compound] |  |  |  |  | MES-Induced Seizure Average THLE (MES-induced seizure): 7.92 ± 0.60 s; protective effect in MES-induced seizure (in words) (MES-induced seizure; vs saline-treated group): did not affect MES-induced seizures; PTZ-Induced Seizure % Protection against GTCS (PTZ-induced seizure; 10 mg/kg i.p.): 14.29%; PTZ-Induced Seizure Average Seizure Score (PTZ-induced seizure; 10 mg/kg i.p.): 4.29 ± 0.25; protective effect in PTZ-induced seizure (in words) (PTZ-induced seizure; 10 mg/kg i.p.): did not affect seizure score; STR-Induced Seizure % Protection against GTCS (STR-induced seizure; 10 mg/kg i.p.): 28.57%; STR-Induced Seizure Average Seizure Score (STR-induced seizure; 10 mg/kg i.p.): 4.71 ± 0.16 |
| O=C(O)C(=O)O.O=C(c1ccccc1)c1ccc(OCCCCCN2CCCCC2)cc1 [Ligand 14, phenyl(4-(5-(piperidin-1-yl)pentyloxy)phenyl)methanone hydrogen oxalate] | + (moderate protective effect (tonic hind limb extension (THLE) duration in the range of 2–5 s, seizure score in the range of 2–4)) | + (moderate protective effect (tonic hind limb extension (THLE) duration in the range of 2–5 s, seizure score in the range of 2–4)) | − | 36.2 |  |
| CCCC(CCC)C(=O)O [VPA, valproic acid, reference compound] |  |  |  |  | PTZ-Induced Seizure % Protection against GTCS (PTZ-induced seizure; 300 mg/kg i.p.): 100%; PTZ-Induced Seizure Average Seizure Score (PTZ-induced seizure; 300 mg/kg i.p.): 0.00 ± 0.00; STR-Induced Seizure % Protection against GTCS (STR-induced seizure; 300 mg/kg i.p.): 100%; STR-Induced Seizure Average Seizure Score (STR-induced seizure; 300 mg/kg i.p.): 0 |
| CC1CCCN(CCCCCCOc2cccc(C(=O)c3ccccc3)c2)C1.O=C(O)C(=O)O (stereo not shown) [Ligand 9, (3-(6-(3-methylpiperidin-1-yl)hexyloxy)phenyl)(phenyl)methanone hydrogen oxalate] | − | − | − | 110 | Ki (human H1 receptor): 915 to 1340 nM |
| O=C(O)C(=O)O.O=C(c1ccccc1)c1cccc(OCCCCCCN2CCCCC2)c1 [Ligand 8, phenyl(3-(6-(piperidin-1-yl)hexyloxy)phenyl)methanone hydrogen oxalate] | + (moderate protective effect (tonic hind limb extension (THLE) duration in the range of 2–5 s, seizure score in the range of 2–4)) | − | − | 76.1 |  |
| CC1CCCN(CCCCCCOc2ccc(F)cc2)C1.O=C(O)C(=O)O (stereo not shown) [Ligand 12, 1-(6-(4-fluorophenoxy)hexyl)-3-methylpiperidine hydrogen oxalate] | − | + (moderate protective effect (tonic hind limb extension (THLE) duration in the range of 2–5 s, seizure score in the range of 2–4)) | − |  | Ki (human histamine H3R; [1]): 83.6 nM |
| CC1CCCN(CCCCCOc2ccc(C(=O)c3ccccc3)cc2)C1.O=C(O)C(=O)O (stereo not shown) [Ligand 15, (4-(5-(3-methylpiperidin-1-yl)pentyloxy)phenyl)(phenyl)methanone hydrogen oxalate] | − | + (moderate protective effect (tonic hind limb extension (THLE) duration in the range of 2–5 s, seizure score in the range of 2–4)) | − | 40.2 | Ki (human H1 receptor): 915 to 1340 nM |
| O=C(O)C(=O)O.O=C(c1ccccc1)c1ccc(OCCCCCCN2CCCCC2)cc1 [Ligand 5, phenyl(4-(6-(piperidin-1-yl)hexyloxy)phenyl)methanone hydrogen oxalate] | ++ (high protective effect (THLE duration <1, seizure score 0)) | − | − | 41.1 |  |
| CC1CCCN(CCCCCOc2ccc3ccccc3c2)C1.O=C(O)C(=O)O (stereo not shown) [Ligand 1, 3-methyl-1-(5-(naphthalen-2-yloxy)pentyl)piperidine hydrogen oxalate] | − | − | − |  |  |
